Measurements from patent publication US8283353B2, “Fused ring compound and use thereof” (Takeda Pharmaceutical Company Limited, priority 2009, dated 2012).

Key:
human AT1 receptor = biological target: T1, human AT1 receptor (Homo sapiens, UniProt P30556); assay: AT1 receptor antagonistic activity: [125I]-angiotensin II binding assay on human AT1 receptor-expressing CHO-K1 cellular membrane fraction; details: 22.5 pM [125I]-angiotensin II, 1 hr room temperature
T1 construct: expressed in transfected cells; membrane fraction
T1 sequence (P30556 1-359): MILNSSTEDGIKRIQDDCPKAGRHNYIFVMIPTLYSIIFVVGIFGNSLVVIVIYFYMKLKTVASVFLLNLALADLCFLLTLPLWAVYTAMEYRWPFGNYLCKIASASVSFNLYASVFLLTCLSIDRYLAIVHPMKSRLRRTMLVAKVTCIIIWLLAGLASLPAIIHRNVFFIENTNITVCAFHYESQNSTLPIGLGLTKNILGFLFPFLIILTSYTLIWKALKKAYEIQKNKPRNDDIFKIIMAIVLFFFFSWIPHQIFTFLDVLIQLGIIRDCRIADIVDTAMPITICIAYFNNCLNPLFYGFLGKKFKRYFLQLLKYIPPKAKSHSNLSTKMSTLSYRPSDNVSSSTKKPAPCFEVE
Summary of the method: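 Competition binding used radiolabelled angiotensin II on stably transfected CHO-K1 membrane fractions in Tris pH 7.4/MgCl2 buffer, optionally containing 0.3 mg/mL fatty acid-free BSA, 1 hr at room temperature. Filtration onto GF/C separated bound tracer, and nonspecific binding was measured with candesartan.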

human PPARγ = biological target: T2, human PPARγ (Homo sapiens, UniProt P37231); assay: PPARγ agonistic activity: luciferase reporter assay in PPARγ:RXRα:4ERPP/CHO-K1 cells; format: cell-based; details: CHO-K1, test compound 10^−6 M; luciferase activity of control compound X (1 μM) = 100%, non-administration group = 0%
T2 construct: expressed in transfected cells
T2 sequence (P37231 1-477 isoform P37231-2): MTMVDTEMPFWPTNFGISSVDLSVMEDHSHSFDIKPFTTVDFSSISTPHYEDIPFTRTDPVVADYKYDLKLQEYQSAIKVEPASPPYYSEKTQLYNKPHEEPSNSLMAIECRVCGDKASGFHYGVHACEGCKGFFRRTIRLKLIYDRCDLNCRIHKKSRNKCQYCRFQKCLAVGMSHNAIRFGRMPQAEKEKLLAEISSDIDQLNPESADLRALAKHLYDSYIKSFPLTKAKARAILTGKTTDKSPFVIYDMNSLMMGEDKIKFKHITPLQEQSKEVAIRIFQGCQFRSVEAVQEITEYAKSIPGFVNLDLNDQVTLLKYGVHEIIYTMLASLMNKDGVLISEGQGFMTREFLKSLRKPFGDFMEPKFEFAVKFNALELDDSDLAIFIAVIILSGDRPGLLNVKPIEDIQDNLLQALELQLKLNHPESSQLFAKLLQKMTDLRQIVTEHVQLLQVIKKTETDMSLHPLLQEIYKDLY
T2 sequence (P19793 1-462 partner): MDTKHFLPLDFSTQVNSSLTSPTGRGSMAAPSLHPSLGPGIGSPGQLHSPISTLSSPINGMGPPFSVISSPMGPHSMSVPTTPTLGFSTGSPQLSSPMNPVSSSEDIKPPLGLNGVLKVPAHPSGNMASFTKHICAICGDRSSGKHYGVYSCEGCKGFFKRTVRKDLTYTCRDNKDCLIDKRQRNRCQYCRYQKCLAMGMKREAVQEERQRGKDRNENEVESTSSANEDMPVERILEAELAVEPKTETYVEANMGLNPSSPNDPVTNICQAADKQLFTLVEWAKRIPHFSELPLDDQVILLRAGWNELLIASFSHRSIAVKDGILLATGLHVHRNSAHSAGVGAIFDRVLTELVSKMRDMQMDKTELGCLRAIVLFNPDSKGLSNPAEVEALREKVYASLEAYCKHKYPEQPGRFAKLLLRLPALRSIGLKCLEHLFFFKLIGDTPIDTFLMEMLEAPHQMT
Summary of the method: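 Activity is expressed relative to untreated cells (0%) and 1 μM reference compound X (100%), from luciferase luminescence. Reporter line: PPARγ:RXRα:4ERPP/CHO-K1, exposed to compound for one day at 37 °C in F12 medium containing 0.1% fatty-acid-free BSA.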

IC50 (human AT1 receptor)	activation at 1 µM (human PPARγ)	SMILES
1.6 nM	20%	CCCc1c(Cc2ccc(-c3ccccc3-c3noc(=O)[nH]3)cc2)c(=O)n(C2CCC3(CC2)OCC(C)(C)CO3)c2ncnn12 [Example 170, 4-(3,3-dimethyl-1,5-dioxaspiro[5.5]undec-9-yl)-6-{[2′-(5-oxo-4,5-dihydro-1,2,4-oxadiazol-3-yl)biphenyl-4-yl]methyl}-7-propyl[1,2,4]triazolo[1,5-a]pyrimidin-5(4H)-one]
1 nM	18%	CCCc1c(Cc2ccc(-c3ccccc3-c3noc(=O)[nH]3)cc2)c(=O)n([C@H]2CC[C@H](OCCO)CC2)c2ncnn12 [Example 164, 4-[trans-4-(2-hydroxyethoxy)cyclohexyl]-6-{[2′-(5-oxo-4,5-dihydro-1,2,4-oxadiazol-3-yl)biphenyl-4-yl]methyl}-7-propyl[1,2,4]triazolo[1,5-a]pyrimidin-5(4H)-one]
2.8 nM	29%	CCCc1c(Cc2ccc(-c3ccccc3-c3noc(=O)[nH]3)cc2F)c(=O)n([C@H]2CC[C@H](OC(C)C(O)(CF)CF)CC2)c2ncnn12 (stereo partly drawn) [Example 364, 4-{trans-4-[3-fluoro-2-(fluoromethyl)-2-hydroxy-1-methylpropoxy]cyclohexyl}-6-{[3-fluoro-2′-(5-oxo-4,5-dihydro-1,2,4-oxadiazol-3-yl)biphenyl-4-yl]methyl}-7-propyl[1,2,4]triazolo[1,5-a]pyrimidin-5(4H)-one]
2 nM	28%	CCCc1c(Cc2ccc(-c3ccccc3-c3noc(=O)[nH]3)cc2)c(=O)n(C2CCC(=NOC(C)C)CC2)c2ncnn12 (centres unmarked) [Example 193, 4-{4-[(1-methylethoxy)imino]cyclohexyl}-6-{[2′-(5-oxo-4,5-dihydro-1,2,4-oxadiazol-3-yl)biphenyl-4-yl]methyl}-7-propyl[1,2,4]triazolo[1,5-a]pyrimidin-5(4H)-one]
1.7 nM	6%	CCCCc1c(Cc2ccc(-c3ccccc3-c3noc(=O)[nH]3)cc2)c(=O)n([C@H]2C[C@@H](C)O[C@@H](C)C2)c2ncnn12 [Example 139, 7-butyl-4-[(2R,4r,6S)-2,6-dimethyltetrahydro-2H-pyran-4-yl]-6-{[2′-(5-oxo-4,5-dihydro-1,2,4-oxadiazol-3-yl)biphenyl-4-yl]methyl}[1,2,4]triazolo[1,5-a]pyrimidin-5(4H)-one]
2.2 nM	20%	CCCc1c(Cc2ccc(-c3ccccc3-c3noc(=O)[nH]3)cc2)c(=O)n([C@H]2CC[C@@H](Oc3ccc(C(C)=O)cc3)CC2)c2ncnn12 [Example 277, 4-[cis-4-(4-acetylphenoxy)cyclohexyl]-6-{[2′-(5-oxo-4,5-dihydro-1,2,4-oxadiazol-3-yl)biphenyl-4-yl]methyl}-7-propyl[1,2,4]triazolo[1,5-a]pyrimidin-5(4H)-one]
2.7 nM	27%	CCCc1c(Cc2ccc(-c3ccccc3-c3noc(=O)[nH]3)cc2)c(=O)n([C@H]2CC[C@@]3(CC2)CC(C)=NO3)c2ncnn12 [Example 205, 4-[(5S,8S)-3-methyl-1-oxa-2-azaspiro[4.5]dec-2-en-8-yl]-6-{[2′-(5-oxo-4,5-dihydro-1,2,4-oxadiazol-3-yl)biphenyl-4-yl]methyl}-7-propyl[1,2,4]triazolo[1,5-a]pyrimidin-5(4H)-one]
2.2 nM	21%	CCCc1c(Cc2ccc(-c3ccccc3-c3noc(=O)[nH]3)cc2)c(=O)n([C@H]2CC[C@H](OCC(C)=O)CC2)c2ccnn12 [Example 420, 6-{[2′-(5-oxo-4,5-dihydro-1,2,4-oxadiazol-3-yl)biphenyl-4-yl]methyl}-4-[trans-4-(2-oxopropoxy)cyclohexyl]-7-propylpyrazolo[1,5-a]pyrimidin-5(4H)-one]

Continued, compound first:

SMILES	IC50 (human AT1 receptor)	activation at 1 µM (human PPARγ)
CCCc1c(Cc2ccc(-c3ccccc3-c3noc(=O)[nH]3)cc2)c(=O)n([C@H]2CC[C@H](OCC(C)O)CC2)c2ncnn12 (stereo partly drawn) [Example 379, 4-[trans-4-(2-hydroxypropoxy)cyclohexyl]-6-{[2′-(5-oxo-4,5-dihydro-1,2,4-oxadiazol-3-yl)biphenyl-4-yl]methyl}-7-propyl[1,2,4]triazolo[1,5-a]pyrimidin-5(4H)-one]	2.2 nM	34%
CCCc1c(Cc2ccc(-c3ccccc3-c3noc(=O)[nH]3)cc2)c(=O)n(C2CCCOC2)c2ncnn12 (centres unmarked) [Example 124, 6-{[2′-(5-oxo-4,5-dihydro-1,2,4-oxadiazol-3-yl)biphenyl-4-yl]methyl}-7-propyl-4-(tetrahydro-2H-pyran-3-yl)[1,2,4]triazolo[1,5-a]pyrimidin-5(4H)-one]	2.4 nM	21%
CCCc1c(Cc2ccc(-c3ccccc3-c3noc(=O)[nH]3)cc2)c(=O)n([C@H]2CC[C@H](OCC(C)(O)CC)CC2)c2ncnn12 (stereo partly drawn) [Example 345, 4-[trans-4-(2-hydroxy-2-methylbutoxy)cyclohexyl]-6-{[2′-(5-oxo-4,5-dihydro-1,2,4-oxadiazol-3-yl)biphenyl-4-yl]methyl}-7-propyl[1,2,4]triazolo[1,5-a]pyrimidin-5(4H)-one]	2.1 nM	18%
CCCc1c(Cc2ccc(-c3ccccc3-c3noc(=O)[nH]3)cc2)c(=O)n([C@H]2CC[C@H](OCC(C)(O)CF)CC2)c2ncnn12 (stereo partly drawn) [Example 337, 4-[trans-4-(3-fluoro-2-hydroxy-2-methylpropoxy)cyclohexyl]-6-{[2′-(5-oxo-4,5-dihydro-1,2,4-oxadiazol-3-yl)biphenyl-4-yl]methyl}-7-propyl[1,2,4]triazolo[1,5-a]pyrimidin-5(4H)-one]	1.9 nM	24%
CCCc1c(Cc2ccc(-c3ccccc3-c3noc(=O)[nH]3)cc2)c(=O)n([C@H]2CC[C@](O)(COC)CC2)c2ncnn12 [Example 297, 4-[cis-4-hydroxy-4-(methoxymethyl)cyclohexyl]-6-{[2′-(5-oxo-4,5-dihydro-1,2,4-oxadiazol-3-yl)biphenyl-4-yl]methyl}-7-propyl[1,2,4]triazolo[1,5-a]pyrimidin-5(4H)-one]	2.8 nM	53%
CCCc1c(Cc2ccc(-c3ccccc3-c3noc(=O)[nH]3)cc2)c(=O)n(C2CCC3(CC2)OCCCO3)c2ncnn12 [Example 286, 4-(1,5-dioxaspiro[5.5]undec-9-yl)-6-{[2′-(5-oxo-4,5-dihydro-1,2,4-oxadiazol-3-yl)biphenyl-4-yl]methyl}-7-propyl[1,2,4]triazolo[1,5-a]pyrimidin-5(4H)-one]	3.1 nM	39%
CCCc1c(Cc2ccc(-c3ccccc3-c3noc(=O)[nH]3)cc2)c(=O)n([C@H]2CC[C@H](OCC(O)(CF)CF)CC2)c2ncnn12 [Example 339, 4-{trans-4-[3-fluoro-2-(fluoromethyl)-2-hydroxypropoxy]cyclohexyl}-6-{[2′-(5-oxo-4,5-dihydro-1,2,4-oxadiazol-3-yl)biphenyl-4-yl]methyl}-7-propyl[1,2,4]triazolo[1,5-a]pyrimidin-5(4H)-one]	1.4 nM	27%
CCCc1c(Cc2ccc(-c3ccccc3-c3noc(=O)[nH]3)cc2)c(=O)n([C@H]2CC[C@H](OCCCO)CC2)c2ncnn12 [Example 186, 4-[trans-4-(3-hydroxypropoxy)cyclohexyl]-6-{[2′-(5-oxo-4,5-dihydro-1,2,4-oxadiazol-3-yl)biphenyl-4-yl]methyl}-7-propyl[1,2,4]triazolo[1,5-a]pyrimidin-5(4H)-one]	2.1 nM	24%
